The source made the active and inactive calls. No cut-off for these calls is given here.
Legend:
BV-2 [1] = assay: Anti-inflammatory activity in mouse BV-2 cells assessed as reduction in LPS-induced NO production at 5 uM pretreated with LPS for 24 hrs followed by compound addition and measured after 24 hrs by Griess reagent based analysis; format: functional, cell-based
BV-2 [2] = assay: Anti-inflammatory activity in mouse BV-2 cells assessed as reduction in LPS-induced NO production pretreated with LPS for 24 hrs followed by compound addition and measured after 24 hrs by Griess reagent based analysis; format: functional, cell-based; details: dose 0.5-5 µM
BV-2 [3] = assay: Cytotoxicity against mouse BV-2 cells assessed as cell viability at 5 uM by MTT assay; format: toxicity, cell-based; details: bv-2, 5 µM
BV-2 [4] = assay: Cytotoxicity against mouse BV-2 cells assessed as cell viability at 10 uM by MTT assay; format: toxicity, cell-based; details: bv-2, 10 µM
BV-2 [5] = assay: Cytotoxicity against mouse BV-2 cells assessed as cell viability up to 10 uM by MTT assay; format: toxicity, cell-based; details: bv-2, 10 µM
BV-2 [6] = assay: Anti-inflammatory activity in mouse BV-2 cells assessed as reduction in LPS-induced NO production at 10 uM pretreated with LPS for 24 hrs followed by compound addition and measured after 24 hrs by Griess reagent based analysis; format: functional, cell-based

| Compound | Activity (BV-2 [1]) | Activity (BV-2 [2]) | Activity (BV-2 [3]) | Activity (BV-2 [4]) | Activity (BV-2 [5]) | Activity (BV-2 [6]) |
| --- | --- | --- | --- | --- | --- | --- |
| CN1CCC(n2cc(-c3cnc4[nH]cc(-c5cccc(F)c5)c4c3)cn2)CC1 | Active; Compound Showed Most Pronounced Effect Compared With Other Tested Compounds | Dose-dependent-effect | Non-toxic | Toxic |  |  |
| Clc1cc(Cl)cc(-c2c[nH]c3ncc(-c4cnn(C5CCNCC5)c4)cc23)c1 |  |  |  |  | Non-toxic | Active |
| COc1cc(-c2c[nH]c3ncc(-c4cnn(C5CCNCC5)c4)cc23)c(F)cc1C |  |  |  |  | Non-toxic | Active |
| COc1cccc(-c2c[nH]c3ncc(-c4cnn(C5CCN(C)CC5)c4)cc23)c1 | Active | Dose-dependent-effect | Non-toxic | Toxic |  |  |
| COc1cc(-c2c[nH]c3ncc(-c4cnn(C5CCN(C)CC5)c4)cc23)c(F)cc1C |  |  |  |  | Non-toxic | Active |
| Fc1cccc(-c2c[nH]c3ncc(-c4cnn(C5CCNCC5)c4)cc23)c1 | Active; Compound Showed Most Pronounced Effect Compared With Other Tested Compounds | Dose-dependent-effect | Non-toxic | Toxic |  |  |
| CN1CCC(n2cc(-c3cnc4[nH]cc(-c5cc(Cl)cc(Cl)c5)c4c3)cn2)CC1 |  |  |  |  | Non-toxic | Active |
| COc1cccc(-c2c[nH]c3ncc(-c4cnn(C5CCNCC5)c4)cc23)c1 | Active | Dose-dependent-effect | Non-toxic | Toxic |  |  |
